Results: patent US20160015670A1, “COMPOUND, 1-PALMITIN-2-LINOLEIN-3-OLEIN, AND PHARMACEUTICAL PREPARATION AND USE THEREOF” (priority 2014, published 2016)
Values after ≈ are worked out from the molar mass of the structure shown.

How the values were obtained:
Experiment in all cases: MTT method in vitro, inhibition of cell growth
Type in all cases: cell-based
[1] = test system: BGC-823 (human gastric cancer cells); settings: BGC-823, MTT, 48 h
Text: (§1) (1) Cell lines: PANC-1 (human pancreatic cancer cells), SKOV3 (human ovarian cancer cells), MCF-7 (human breast cancer cells), SMMC-7721 (human liver cancer cells), A549 (human lung cancer cells), BGC-823 (human gastric cancer cells), COLO205 (human colonic cancer cells), storaged and passaged maintainably in Research and Evaluation Center for Pharmacology, Shanghai Institute of Pharmaceutical Industry;
(§2) The inhibition effects of the compound of formula (I) on the above-mentioned cell lines were detected by using MTT method. The specific procedures were as follows:
(§3) (1) Cell culture: (a) Storaged cells were taken out from the liquid nitrogen, thawed quickly in a 37 water bath, then aseptically transferred into 6 ml of cellular medium in a 10 ml centrifugal tube, centrifuged at 1000 rpm for 5 min. The supernatant was discarded, then the precipitated cells were re-suspended in 5-6 ml cellular media by pipetting and transferred into a flask in a 37 incubator for cell culture; (b) Next day, the flask was taken out from the incubator and the used medium was discarded, then the cells were incubated in 5-6 ml fresh medium in the 37 incubator; (c) On the third day, the flask was taken out from the incubator and the used medium was discarded, then 2-3 ml of PBS (pH7.4) was added into the flask with rocking for cleaning it and the used PBS was discarded. Such a cellular cleaning step was repeated once again. 3-5 drops of 0.25% trypsin solution were added into the flask with sloshing, thus well-distributed in it. The flask was capped and placed in a 37 incubator for about 3 min, and the separation of cells from the flask wall was observed under the microscope. 2 ml of cellular medium was added and cells were separated completely from the flask wall by pipetting, then the cell suspension was transferred into 2 separate clean flasks, each containing 5-6 ml medium. The cell suspension was well-distributed by pipetting, then the flask was placed in a 37 incubator. (d) Step (c) was repeated every other day. […]
(§4) (4) Cells in a logarithmic growth stage were trypsinized and washed, then re-suspended in the medium containing 10% calf serum. The number of living cells was counted in Trypan blue dye exclusion method and cell suspensions were adjusted into a density of 2×10^5 cell/ml. […]
(§5) (7) 100 μl of crystal dissolving solution was added into each well and cells were incubated continuously in the incubator overnight, so as to dissolve the resulted formazan crystals sufficiently. Then, the absorbance value was measured at 570 nm for each well.
(§6) (8) Based on absorbance values, inhibition rates on the cell growth were calculated for sample groups of various concentrations. […]
(§7) (1−mean absorbance of experimental wells/mean absorbance of control wells)×100%

[2] = test system: COLO205 (human colonic cancer cells); settings: COLO 205, 48 h
Text: as §1, §2, §3, §4, §5, §6, §7

[3] = test system: PANC-1 (human pancreatic cancer cells); settings: PANC-1, MTT, 48 h
Text: as §1, §2, §3, §4, §5, §6, §7

[4] = test system: SMMC-7721 (human liver cancer cells); settings: SMMC-7721, MTT, 48 h
Text: as §1, §2, §3, §4, §5, §6, §7

CC(=O)O[C@H]1C(=O)[C@@]2(C)[C@H]([C@H](OC(=O)c3ccccc3)[C@]3(O)C[C@H](OC(=O)[C@H](O)[C@@H](NC(=O)c4ccccc4)c4ccccc4)C(C)=C1C3(C)C)[C@]1(OC(C)=O)CO[C@@H]1C[C@@H]2O [Taxol, reference compound]
IC50 [1]: 0.24 µg/mL (≈ 0.281 µM) | IC50 [2]: 0.75 µg/mL (≈ 0.878 µM) | IC50 [3]: 0.44 µg/mL (≈ 0.515 µM) | IC50 [4]: 0.12 µg/mL (≈ 0.141 µM)
